Source: ChEMBL document CHEMBL1152339, “Use of the in vivo hollow fiber assay in natural products anticancer drug discovery” (J Nat Prod, 2009)

Columns and labels:
Type in all cases: functional
[1] = tested on: KB; assay: Growth inhibition of human KB cells xenografted in NCr nu/nu mouse at 25 to 100 mg/kg, ip once daily administered from day 3 to 6 after implantation measured on day 7 by MTT-based hollow-fiber test; settings: route intraperitoneal
[2] = tested on: KB; assay: Growth inhibition of human KB cells xenografted in NCr nu/nu mouse at 25 to 100 mg/kg, sc once daily administered from day 3 to 6 after implantation measured on day 7 by MTT-based hollow-fiber test; settings: route subcutaneous
[3] = tested on: LNCaP; assay: Growth inhibition of human LNCAP cells xenografted in NCr nu/nu mouse at 25 to 100 mg/kg, ip once daily administered from day 3 to 6 after implantation measured on day 7 by MTT-based hollow-fiber test; settings: route intraperitoneal
[4] = tested on: LNCaP; assay: Growth inhibition of human LNCAP cells xenografted in NCr nu/nu mouse at 25 to 100 mg/kg, sc once daily administered from day 3 to 6 after implantation measured on day 7 by MTT-based hollow-fiber test; settings: route subcutaneous
[5] = tested on: SW626; assay: Growth inhibition of human SW626 cells xenografted in NCr nu/nu mouse at 25 to 100 mg/kg, ip once daily administered from day 3 to 6 after implantation measured on day 7 by MTT-based hollow-fiber test; settings: dose mg/kg 3-6; route intraperitoneal
[6] = tested on: SW626; assay: Growth inhibition of human SW626 cells xenografted in NCr nu/nu mouse at 25 to 100 mg/kg, sc once daily administered from day 3 to 6 after implantation measured on day 7 by MTT-based hollow-fiber test; settings: dose mg/kg 3-6; route subcutaneous
[7] = tested on: SK-MEL-2; assay: Growth inhibition of human SK-MEL-2 cells xenografted in NCr nu/nu mouse at 25 to 100 mg/kg, ip once daily administered from day 3 to 6 after implantation measured on day 7 by MTT-based hollow-fiber test; settings: dose mg/kg 3-6; route intraperitoneal
[8] = tested on: SK-MEL-2; assay: Growth inhibition of human SK-MEL-2 cells xenografted in NCr nu/nu mouse at 25 to 100 mg/kg, sc once daily administered from day 3 to 6 after implantation measured on day 7 by MTT-based hollow-fiber test; settings: dose mg/kg 3-6; route subcutaneous
[9] = tested on: MCF7; assay: Growth inhibition of human MCF7 cells xenografted in NCr nu/nu mouse at 25 to 100 mg/kg, ip once daily administered from day 3 to 6 after implantation measured on day 7 by MTT-based hollow-fiber test; settings: dose mg/kg 3-6; route intraperitoneal
[10] = tested on: MCF7; assay: Growth inhibition of human MCF7 cells xenografted in NCr nu/nu mouse at 25 to 100 mg/kg, sc once daily administered from day 3 to 6 after implantation measured on day 7 by MTT-based hollow-fiber test; settings: dose mg/kg 3-6; route subcutaneous
[11] = tested on: SW626; assay: Growth inhibition of human SW626 cells xenografted in ip dosed NCr nu/nu mouse administered once daily from day 3 to 6 after implantation measured on day 7 by MTT-based hollow-fiber test
[12] = tested on: MCF7; assay: Growth inhibition of human MCF7 cells xenografted in ip dosed NCr nu/nu mouse administered once daily from day 3 to 6 after implantation measured on day 7 by MTT-based hollow-fiber test
[13] = tested on: LNCaP; assay: Growth inhibition of human LNCAP cells xenografted in ip dosed NCr nu/nu mouse administered once daily from day 3 to 6 after implantation measured on day 7 by MTT-based hollow-fiber test
[14] = tested on: SK-MEL-2; assay: Growth inhibition of human SK-MEL-2 cells xenografted in ip dosed NCr nu/nu mouse administered once daily from day 3 to 6 after implantation measured on day 7 by MTT-based hollow-fiber test
[15] = tested on: MCF7; assay: Growth inhibition of human MCF7 cells xenografted in NCr nu/nu mouse at 6.25 to 50 mg/kg, sc once daily administered from day 3 to 6 after implantation measured on day 7 by MTT-based hollow-fiber test; settings: dose mg/kg 3-6; route subcutaneous
[16] = tested on: MCF7; assay: Growth inhibition of human MCF7 cells xenografted in NCr nu/nu mouse at 6.25 to 50 mg/kg, ip once daily administered from day 3 to 6 after implantation measured on day 7 by MTT-based hollow-fiber test; settings: dose mg/kg 3-6; route intraperitoneal
[17] = tested on: KB; assay: Growth inhibition of human KB cells xenografted in NCr nu/nu mouse at 0.195 to 1.56 mg/kg, ip once daily administered from day 3 to 6 after implantation measured on day 7 by MTT-based hollow-fiber test; settings: route intraperitoneal
[18] = tested on: KB; assay: Growth inhibition of human KB cells xenografted in NCr nu/nu mouse at 0.195 to 1.56 mg/kg, sc once daily administered from day 3 to 6 after implantation measured on day 7 by MTT-based hollow-fiber test; settings: route subcutaneous
[19] = tested on: LNCaP; assay: Growth inhibition of human LNCAP cells xenografted in NCr nu/nu mouse at 0.195 to 1.56 mg/kg, ip once daily administered from day 3 to 6 after implantation measured on day 7 by MTT-based hollow-fiber test; settings: route intraperitoneal
[20] = tested on: LNCaP; assay: Growth inhibition of human LNCAP cells xenografted in NCr nu/nu mouse at 0.195 to 1.56 mg/kg, sc once daily administered from day 3 to 6 after implantation measured on day 7 by MTT-based hollow-fiber test; settings: route subcutaneous
[21] = tested on: Col2; assay: Growth inhibition of human Col2 cells xenografted in NCr nu/nu mouse at 0.195 to 1.56 mg/kg, ip once daily administered from day 3 to 6 after implantation measured on day 7 by MTT-based hollow-fiber test; settings: route intraperitoneal
[22] = tested on: Col2; assay: Growth inhibition of human Col2 cells xenografted in NCr nu/nu mouse at 0.195 to 1.56 mg/kg, sc once daily administered from day 3 to 6 after implantation measured on day 7 by MTT-based hollow-fiber test; settings: route subcutaneous
[23] = tested on: Col2; assay: Growth inhibition of human Col2 cells xenografted in ip dosed NCr nu/nu mouse administered once daily from day 3 to 6 after implantation measured on day 7 by MTT-based hollow-fiber test

SMILES	growth inhibition (GI) [1]	growth inhibition (GI) [2]	growth inhibition (GI) [3]	growth inhibition (GI) [4]	ED50 [13]	growth inhibition (GI) [17]	growth inhibition (GI) [18]	growth inhibition (GI) [19]	growth inhibition (GI) [20]	growth inhibition (GI) [21]	growth inhibition (GI) [22]	ED50 [23]	also measured
CO[C@@]12CC[C@@]3(C)[C@@](CC[C@@H]4[C@@]5(C)CCC[C@]43OC5=O)(C1)C(=O)C2=O	21%	6%	50%	0%	1200 nM	–	–	–	–	–	–	–	growth inhibition (GI) [5]: 0%; growth inhibition (GI) [6]: 16%; growth inhibition (GI) [7]: 15%; growth inhibition (GI) [8]: 11%; growth inhibition (GI) [9]: 34%; growth inhibition (GI) [10]: 0%; ED50 [11]: 580 nM; ED50 [12]: 870 nM; ED50 [14]: 1200 nM
C[C@]12CC[C@]3(O)C[C@@]1(CC[C@@H]1[C@@]4(C)CCC[C@]12OC4=O)C(=O)C3=O	0%	0%	0%	0%	4500 nM	–	–	–	–	–	–	–	–
CCCCCCCCCCCCC[C@@H]1C[C@@H](O)C[C@]2(CCC3(C=CC(=O)C=C3)O2)O1 [ACULEATIN A]	–	–	–	–	–	–	–	–	–	–	–	–	growth inhibition (GI) [15]: 0%; growth inhibition (GI) [16]: 10%
CC(=O)O[C@@H]1O[C@@H]([C@H]2c3cccc(O)c3C(=O)c3c(O)cc(C)cc32)[C@H](O)[C@@H](O)[C@H]1O [ALVARADOIN E]	–	–	–	–	140 nM	40%	5%	60%	10%	31%	6%	230 nM	–
CC(=O)O[C@H]1O[C@H]([C@@H]2c3cccc(O)c3C(=O)c3c(O)cc(C)cc32)[C@H](O)[C@@H](O)[C@H]1O [ALVARADOIN F]	–	–	–	–	120 nM	32%	2%	59%	3%	21%	1%	230 nM	–
